Read-outs that look alike come from different tables or passages of the source.
Key:
Pa16c cells = test: Pa16c Cell Proliferation Assay; type: cell-based; settings: Table 2, read-out: Inhibition of cell proliferation in Pa16c (IC50 class)
Procedure, shortened: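 Mouse Pa16c cells, 750/well in DMEM with 10% FBS, exposed to serially diluted compound in triplicate for 67 to 72 h at 37° C. Viability read by resazurin reduction over a further 18 to 24 h (ex 540/em 600 nm). IC50 calculated from the dose-response.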

[1] = biological target: T1, C-Raf kinase (SEQ ID NO: 2) (Homo sapiens, UniProt P04049, Y340D/Y341D); test: Biochemical Assay for C-Raf (coupled pyruvate kinase/lactate dehydrogenase assay)
T1 construct: C-Raf residues 306-end; Y340D, Y341D with; GST (N); purchased Sigma

[2] = biological target: T2, B-Raf kinase (SEQ ID NO: 1) (Homo sapiens, UniProt P15056); test: Biochemical Assay for B-Raf (coupled pyruvate kinase/lactate dehydrogenase assay)
T2 construct: GST (N); purchased Sigma

HCT-116 cells = test: HCT-116 Cell Proliferation Assay; type: cell-based; settings: Homo sapiens
Procedure, shortened: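 HCT-116 cells, 375/well in McCoy's 5A with 10% FBS, exposed to serial compound dilutions in triplicate for 67 to 72 hours at 37 °C. Viability read by resazurin fluorescence (ex 540/em 600 nm) after a further 4 to 5 h; IC50 values calculated.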

HPAF-II cells = test: HPAF-II Cell Proliferation Assay; type: cell-based; settings: Homo sapiens, HPAF-II
Procedure, shortened: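 HPAF-II cells (750/well) in complete MEM with 10% FBS were exposed to serially diluted compound in triplicate for 115–120 h at 37 °C, 5% CO2. Resazurin was then added for 18–24 h more; fluorescence (ex 540/em 600 nm) gave IC50.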

MiaPaca-2 cells = test: MiaPaca-2 Cell Proliferation Assay; type: cell-based; settings: Homo sapiens
Procedure, shortened: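 Viability was read as resazurin fluorescence (540 nm excitation, 600 nm emission) after 5–6 h with dye. Compounds were tested as serial dilutions in triplicate, with IC50 derived from the dose–response.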

Porcine Brain Tubulin = biological target: T3, Porcine Brain Tubulin (Sus scrofa, UniProt P02550+P02554); test: Biochemical Tubulin Polymerization Assay; settings: Table 4, representative compounds from PCT/US2022/081242; read-out: Tubulin Biochem IC50
T3 construct: Porcine Brain Tubulin (T240); purchased Cytoskeleton, Inc T240; BK011P; host or cells: porcine brain (tissue-purified)

[3] = 1 mM ATP, read-out: CRAF (inhibition of biochemical activity, IC50)
[4] = 1 mM ATP, read-out: BRAF (inhibition of biochemical activity, IC50)
[5] = HCT-116, HCT-116 cells, Table 2, read-out: Inhibition of cell proliferation in HCT-116 (IC50 class)
[6] = HPAF-II cells, Table 2, read-out: Inhibition of cell proliferation in HPAF-II (IC50 class)
[7] = MIA PaCa-2, MiaPaca-2 cells, Table 2, read-out: Inhibition of cell proliferation in MiaPaca-2 (IC50 class)
[8] = Table 4, representative compounds from PCT/US2022/081242, read-out: CRAF IC50
[9] = Table 4, representative compounds from PCT/US2022/081242, read-out: BRAF IC50
[10] = HCT-116, Table 4, HCT-116 mutant KRAS colorectal cancer cell line, read-out: HCT-116 IC50
[11] = Table 4, HPAF-II mutant KRAS pancreatic cancer cell line, read-out: HPAF-II IC50
[12] = MIA PaCa-2, Table 4, MiaPaca-2 mutant KRAS pancreatic cancer cell line, read-out: MiaPaca-2 IC50

T3 sequence (P02550 whole entry): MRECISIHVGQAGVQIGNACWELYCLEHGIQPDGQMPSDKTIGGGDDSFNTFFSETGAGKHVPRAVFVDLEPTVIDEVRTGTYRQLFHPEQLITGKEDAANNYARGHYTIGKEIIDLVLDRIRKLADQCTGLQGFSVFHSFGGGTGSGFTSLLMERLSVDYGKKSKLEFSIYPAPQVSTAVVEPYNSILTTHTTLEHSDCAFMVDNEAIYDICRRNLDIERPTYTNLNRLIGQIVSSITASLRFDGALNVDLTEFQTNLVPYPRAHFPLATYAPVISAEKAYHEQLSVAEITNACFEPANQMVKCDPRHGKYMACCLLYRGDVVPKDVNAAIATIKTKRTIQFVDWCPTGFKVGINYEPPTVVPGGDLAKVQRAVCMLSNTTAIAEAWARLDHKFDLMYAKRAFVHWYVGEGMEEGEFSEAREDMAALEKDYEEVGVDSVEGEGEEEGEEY
T3 sequence (P02554 whole entry): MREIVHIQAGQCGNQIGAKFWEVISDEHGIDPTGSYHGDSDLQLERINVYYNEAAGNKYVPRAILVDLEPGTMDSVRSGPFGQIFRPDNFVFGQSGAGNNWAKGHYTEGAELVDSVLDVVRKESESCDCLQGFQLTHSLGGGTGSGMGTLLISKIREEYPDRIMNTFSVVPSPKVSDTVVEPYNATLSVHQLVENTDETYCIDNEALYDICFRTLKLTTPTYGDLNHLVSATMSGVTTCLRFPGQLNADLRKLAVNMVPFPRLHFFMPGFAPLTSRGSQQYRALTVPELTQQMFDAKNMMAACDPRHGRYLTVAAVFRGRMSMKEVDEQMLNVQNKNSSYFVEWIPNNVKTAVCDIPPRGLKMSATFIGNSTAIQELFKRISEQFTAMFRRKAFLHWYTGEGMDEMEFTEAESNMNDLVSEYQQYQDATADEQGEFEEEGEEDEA
T1 sequence (P04049 307-648 Y340D/Y341D): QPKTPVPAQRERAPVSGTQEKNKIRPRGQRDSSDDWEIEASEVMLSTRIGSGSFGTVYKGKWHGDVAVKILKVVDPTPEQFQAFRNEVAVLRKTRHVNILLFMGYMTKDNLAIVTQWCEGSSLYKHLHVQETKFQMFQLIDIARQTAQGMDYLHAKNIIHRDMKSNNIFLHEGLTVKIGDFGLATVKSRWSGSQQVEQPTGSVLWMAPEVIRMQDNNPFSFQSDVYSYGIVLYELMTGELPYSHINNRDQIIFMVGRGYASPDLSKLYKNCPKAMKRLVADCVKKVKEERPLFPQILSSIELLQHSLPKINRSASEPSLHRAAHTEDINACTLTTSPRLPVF
T2 sequence (P15056 416-766): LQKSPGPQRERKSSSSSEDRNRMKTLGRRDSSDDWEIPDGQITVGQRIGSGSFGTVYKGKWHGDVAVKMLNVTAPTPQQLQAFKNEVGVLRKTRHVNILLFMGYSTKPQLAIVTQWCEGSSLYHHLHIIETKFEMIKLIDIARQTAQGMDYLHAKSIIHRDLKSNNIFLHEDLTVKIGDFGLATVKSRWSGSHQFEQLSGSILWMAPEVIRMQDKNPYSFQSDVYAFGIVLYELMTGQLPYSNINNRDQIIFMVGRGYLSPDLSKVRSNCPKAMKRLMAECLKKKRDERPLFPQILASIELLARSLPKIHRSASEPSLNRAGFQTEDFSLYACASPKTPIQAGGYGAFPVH

SMILES	IC50 [1, 3]	IC50 [2, 4]	IC50 (HCT-116 cells; [5])	IC50 (MiaPaca-2 cells; [7])	IC50 (Porcine Brain Tubulin)	IC50 [1, 8]	IC50 [2, 9]	IC50 (HCT-116 cells; [10])	IC50 (MiaPaca-2 cells; [12])	IC50 (Pa16c cells)	IC50 (HPAF-II cells; [6])	IC50 (HPAF-II cells; [11])
CONc1cc(-c2cc(-c3cc(NC(=O)c4cc(C(F)(F)F)cnn4)ccc3C)ccn2)ccn1 [Example 128, N-(3-(2′-(methoxyamino)-[2,4′-bipyridin]-4-yl)-4-methylphenyl)-5-(trifluoromethyl)pyridazine-3-carboxamide]	100 to 500 nM	100 to 500 nM	100 to 500 nM	100 to 500 nM						500 to 1000 nM	100 to 500 nM	
Cc1ccc(NC(=O)c2cc(C(F)(F)F)cnn2)cc1-c1ccnc(-c2ccnc(NCCO)c2)c1 [Example 129]	< 100 nM	100 to 500 nM	< 100 nM	< 100 nM						100 to 500 nM	< 100 nM	
Cc1ccc(NC(=O)c2cc(Br)cnn2)cc1-c1ccnc(-c2ccnc(NC(=O)C3CC3)c2)c1 [Example 130]	< 100 nM	< 100 nM	500 to 1000 nM	100 to 500 nM						500 to 1000 nM	1000 to 10000 nM	
Cc1ccc(NC(=O)c2cc(C(F)(F)F)cnn2)cc1-c1cc(OCCO)nc(-c2ccnc(NC(=O)C3CC3)c2)c1 [Example 131]	< 100 nM	< 100 nM	< 100 nM	100 to 500 nM						100 to 500 nM	100 to 500 nM	
Cc1ccc(NC(=O)c2cnc(C(F)(F)F)nc2)cc1-c1cc(N[C@H](C)CO)nc(-c2cn[nH]c2)c1 [Example 133]	< 100 nM	100 to 500 nM	100 to 500 nM	100 to 500 nM						1000 to 10000 nM	1000 to 10000 nM	
Cc1ccc(NC(=O)c2cc(OC(F)F)cnn2)cc1-c1ccnc(-c2ccnc(NC(=O)C3CC3)c2)c1 [Example 134]	< 100 nM	< 100 nM	100 to 500 nM	500 to 1000 nM						100 to 500 nM	1000 to 10000 nM	
Cc1ccc(NC(=O)c2cc(C(F)(F)F)cnn2)cc1-c1ccnc(-c2cncn2C)c1 [Example 135]	< 100 nM	< 100 nM	100 to 500 nM	100 to 500 nM						100 to 500 nM	100 to 500 nM	
Cc1ccc(NC(=O)c2cc(C3CC3)cnn2)cc1-c1ccnc(-c2cnsc2)c1 [Example 136]	< 100 nM	100 to 500 nM	100 to 500 nM	100 to 500 nM						100 to 500 nM	100 to 500 nM	
Cc1ccc(NC(=O)c2cc(C(C)(F)F)cnn2)cc1-c1ccnc(-c2cnsc2)c1 [Example 137]	< 100 nM	100 to 500 nM	100 to 500 nM	100 to 500 nM						500 to 1000 nM	100 to 500 nM	
Cc1ccc(NC(=O)c2cc(C(C)(F)F)cnn2)cc1-c1ccnc(-c2cncn2C)c1 [Example 138]	< 100 nM	< 100 nM	100 to 500 nM	100 to 500 nM						100 to 500 nM	100 to 500 nM	
Cc1ccc(NC(=O)c2cc(C(F)(F)F)cnn2)cc1-c1ccnc(-c2cnn(C)n2)c1 [Example 139]	< 100 nM	100 to 500 nM	100 to 500 nM	100 to 500 nM						500 to 1000 nM	100 to 500 nM	

Second part, led by results:

IC50 [1, 3]	IC50 [2, 4]	IC50 (HCT-116 cells; [5])	IC50 (MiaPaca-2 cells; [7])	IC50 (Porcine Brain Tubulin)	IC50 [1, 8]	IC50 [2, 9]	IC50 (HCT-116 cells; [10])	IC50 (MiaPaca-2 cells; [12])	SMILES	IC50 (Pa16c cells)	IC50 (HPAF-II cells; [6])	IC50 (HPAF-II cells; [11])
< 100 nM	100 to 500 nM	100 to 500 nM	100 to 500 nM						Cc1ccc(NC(=O)c2cc(C(C)(F)F)cnn2)cc1-c1ccnc(-c2cnn(C)n2)c1 [Example 140]	1000 to 10000 nM	500 to 1000 nM	
100 to 500 nM	100 to 500 nM	500 to 1000 nM	500 to 1000 nM						Cc1ccc(NC(=O)c2cc(C3CC3)cnn2)cc1-c1ccnc(-c2cnn(C)n2)c1 [Example 141]	500 to 1000 nM	500 to 1000 nM	
500 to 1000 nM	500 to 1000 nM	100 to 500 nM	500 to 1000 nM						Cc1ccc(NC(=O)c2cc(C(F)(F)F)cnn2)cc1-c1ccnc(-c2cscn2)c1 [Example 142]	100 to 500 nM	100 to 500 nM	
1000 to 10000 nM	1000 to 10000 nM	100 to 500 nM	100 to 500 nM						Cc1ccc(NC(=O)c2cc(C(C)(F)F)cnn2)cc1-c1ccnc(-c2cscn2)c1 [Example 143]	1000 to 10000 nM	100 to 500 nM	
1000 to 10000 nM	1000 to 10000 nM	100 to 500 nM	100 to 500 nM						Cc1ccc(NC(=O)c2cc(C3CC3)cnn2)cc1-c1ccnc(-c2ccsc2)c1 [Example 144]	100 to 500 nM	100 to 500 nM	
100 to 500 nM	100 to 500 nM	100 to 500 nM	100 to 500 nM						Cc1ccc(NC(=O)c2cc(C(F)(F)F)cnn2)cc1-c1ccnc(-c2ccoc2)c1 [Example 145]	100 to 500 nM	100 to 500 nM	
1000 to 10000 nM	1000 to 10000 nM	< 100 nM	< 100 nM						Cc1ccc(NC(=O)c2cc(C(F)(F)F)cnn2)cc1-c1ccnc(-c2ccsc2)c1 [Example 146]	< 100 nM	< 100 nM	
100 to 500 nM	100 to 500 nM	100 to 500 nM	100 to 500 nM						Cc1ccc(NC(=O)c2cc(C3CC3)cnn2)cc1-c1ccnc(-c2ccoc2)c1 [Example 147]	100 to 500 nM	100 to 500 nM	
500 to 1000 nM	1000 to 10000 nM	< 100 nM	100 to 500 nM						Cc1ccc(NC(=O)c2cc(C(C)(F)F)cnn2)cc1-c1ccnc(-c2ccsc2)c1 [Example 148]	100 to 500 nM	100 to 500 nM	
100 to 500 nM	100 to 500 nM	100 to 500 nM	100 to 500 nM						Cc1ccc(NC(=O)c2cc(C(C)(F)F)cnn2)cc1-c1ccnc(-c2ccoc2)c1 [Example 149]	100 to 500 nM	100 to 500 nM	
< 100 nM	100 to 500 nM	100 to 500 nM	100 to 500 nM						Cc1ccc(NC(=O)c2cc(C(C)(F)F)cnn2)cc1-c1ccnc(-c2cnn(C)c2)c1 [Example 150]	500 to 1000 nM	100 to 500 nM	
500 to 1000 nM	500 to 1000 nM	1000 to 10000 nM	1000 to 10000 nM						Cc1ccc(NC(=O)c2cc(C#N)cnn2)cc1-c1cc(N[C@H](C)CO)nc(-c2ccnc(NC(=O)C3CC3)c2)c1 [Example 151]	1000 to 10000 nM	1000 to 10000 nM	
				> 100000 nM	< 100 nM	< 100 nM	100 to 500 nM	1000 to 10000 nM	Cc1ccc(NC(=O)c2ccnc(C(C)(C)F)c2)cc1-c1ccnc(-c2ccnc(NC(=O)C3CC3)c2)c1 [reference compound]			500 to 1000 nM
				> 100000 nM	< 100 nM	< 100 nM	1000 to 10000 nM		Cc1ccc(NC(=O)c2ccnc(C(C)C)c2)cc1-c1ccnc(-c2ccnc(NC(=O)C3CC3)c2)c1 [reference compound]			100 to 500 nM
				> 100000 nM	< 100 nM	< 100 nM	500 to 1000 nM	1000 to 10000 nM	Cc1ccc(NC(=O)c2ccnc(C3CC3)c2)cc1-c1ccnc(-c2ccnc(NC(=O)C3CC3)c2)c1 [reference compound]			1000 to 10000 nM

— patent publication US20260226084A1, “DUAL RAF AND TUBULIN INHIBITORS AND METHODS OF USE THEREOF” (Deciphera Pharmaceuticals, LLC, priority 2023, published 2026)
